ChEMBL document CHEMBL1126991, “Isatin oximes - A novel series of bioavailable non-NMDA antagonists” (Bioorg Med Chem Lett, 1993)

Experiments:
[1] = species: Mus musculus; test: Tested for the effective dosage required for the protection against AMPA induced seizures; assay type: functional
[2] = molecular target: Glutamate receptor ionotropic, AMPA (Rattus norvegicus, UniProt P19490+P19491+P19492+P19493); test: Tested for the inhibition of binding of [3H]AMPA radioligand to Ionotropic glutamate receptor AMPA to cortical membranes from rat brain
[3] = species: Mus musculus; test: Tested for the [Ca2+] i induced elevation using cultured mouse cortical neurons, exposed to 50 uM NMDA for 4 minutes; assay type: functional
[4] = molecular target: Glutamate receptor ionotropic, kainate
Description: Tested for the inhibition of binding of [3H]kainate radioligand to Ionotropic glutamate receptor kainate of cortical membranes from rat brain

[5] = species: Rattus norvegicus; test: Tested for the ability to inhibit NMDA (20 uM) induced depolarizations in rat cortical wedge preparation; assay type: functional
[6] = species: Mus musculus; test: Tested for the [Ca2+] i induced elevation using cultured mouse cortical neurons, exposed to 5 uM AMPA for 4 minutes; assay type: functional
[7] = species: Rattus norvegicus; test: Tested for the ability to inhibit AMPA (5 uM) induced depolarizations in rat cortical wedge preparation; assay type: functional

| SMILES | IC50 [2] | IC50 [3] | IC50 [4] | IC50 [5] | IC50 [6] | IC50 [7] | ED50 [1] |
| --- | --- | --- | --- | --- | --- | --- | --- |
| O=C1Nc2c(ccc3c2CCCC3)/C1=N/O | > 30 µM |  | > 30 µM |  |  |  | > 30 mg/kg |
| O=Nc1c(O)[nH]c2c3c(c([N+](=O)[O-])cc12)CCCC3 | 8.1 µM | > 30 µM | > 30 µM | > 30 µM | > 30 µM | > 30 µM | > 30 mg/kg |
| N#Cc1cc2c(cc1[N+](=O)[O-])=NC(=O)C(=O)N=2 |  |  |  |  |  |  | 10 mg/kg |
| NS(=O)(=O)c1cccc2c1c([N+](=O)[O-])cc1nc(O)c(O)nc12 [NBQX] |  | > 30 µM |  | > 30 µM | 0.3 µM | 0.3 µM | 10 mg/kg |

Further lines, with some results ahead:

| IC50 [2] | IC50 [3] | IC50 [4] | IC50 [5] | IC50 [6] | IC50 [7] | SMILES | ED50 [1] |
| --- | --- | --- | --- | --- | --- | --- | --- |
| 1.8 µM | > 30 µM | 27 µM | > 30 µM | 5.4 µM | 3.5 µM | CN(C)S(=O)(=O)c1cc2c(N=O)c(O)[nH]c2c2c1CCCC2 | 3 mg/kg |
| 2.8 µM | > 30 µM | 30 µM | > 30 µM | 11 µM | 5.2 µM | CNS(=O)(=O)c1cc2c(N=O)c(O)[nH]c2c2c1CCCC2 | 30 mg/kg |
| 2.8 µM | > 30 µM | 24.5 µM | > 30 µM | 3.5 µM | 2.5 µM | NS(=O)(=O)c1cc2c(N=O)c(O)[nH]c2c2c1CCCC2 | > 30 mg/kg |
